Assay results taken from US6784192B2, “Piperidine compound and pharmaceutical composition thereof” (Eisai Co., Ltd., priority 2000, dated 2004).
Structures can show the parent of a compound that is named as a salt. Where two headings read alike, the source gives them in different places.

Experiments:
[1] = test system: sodium channel of synaptosome of rat cerebral cortex; test: Assessment for sodium channel of synaptosome of rat cerebral cortex (SBFI); type: cell-based
Procedure: In the present experiment the synaptosome which was extracted from rat cerebral cortex was used. After sodium ion-sensitive dye, SBFI was taken in, the synaptosome was reacted with the respective tested substances (3 samples in 6 concentrations) at room temperature for 15 minutes in a 96 wells plate. The sodium channel inhibitory activity was measured using FDSS2000 of HAMAMATSU Photonics Co., Ltd. The sodium ion concentration in the synaptosome was measured once per 5 seconds using the fluorescent intensity of SBFI as an index. After measuring the control value 10 times, Veratridine was added so that the final concentration was 20 μM, and further measurement was carried out 30times. The inhibitory activity value of the tested substances for sodium channel was calculated, setting the action only by a measurement solution without the tested substance, as 0%, and the inhibitory activity caused by 2 μM of TTX which was a positive control, as 100%, as an inhibitory activity value corresponding to this action, using the increase of the fluorescent intensity of SBFI to the control value which was generated after addition of Veratridine, as an index.

rabbit atrial muscle = test: Assessment for rabbit atrial muscle, Vmax; settings: Test Example 4, right atrial muscle, stimulation frequency 4 Hz, 15 minutes
Procedure: The specimen of the right atrial muscle which was enucleated from rabbit was used for the present experiment. The electrical stimulation was applied for the right atrial muscle which was enucleated, under conditions: a stimulation duration of 1 mess; a stimulation frequency of 4 Hz; and a stimulation intensity of about 1.2-fold of the threshold. The stimulation was provided from 30 minutes to 60 minutes before start of the experiment, and the condition of the specimen was stabilized. The action potential was recorded according to a glass microelectrode method. 3 M KCl was charged in the glass electrode, inserted in the specimen of the right atrium, and the action potential was recorded. Vmax is the parameter of the maximum upstroke slope of the action potential recorded, and a value which was automatically calculated by an action potential analysis soft (CAPA 1.23 manufactured by Physiotec. Co., Ltd.) was used. After the action potential in a normal Tyrode solution was recorded as control, the action potential after flowing the tested substances at respective concentrations for 15 minutes was recorded. The action of the tested substance for Vmax was calculated as an IC50 value.

[2] = test system: spontaneous nerve discharge of cut left saphenous nerve; test: Suppression of spontaneous nerve discharge (ectopic firing); type: in vivo; settings: Test Example 5, rat, intravenous catheter, urethane anesthetized; for ED50: read-out: Ectopic Firing (ID50 mg/kg)
Procedure: In order to assess the suppression action for spontaneous nerve discharge, the experiment was carried out by a method below, referring to “Burchiel, K J., Exp. Nuerol., 102, 249-253 (1988)”. Namely, for the rat in which spontaneous discharge was observed, the left saphenous nerve was cut off nearby knee articulatio before 1 week or more, and around 3 mm of the nerve was cut off so that the nerve was not adhered again. The left saphenous nerve was exposed under urethane (1 g/kg body weight) anesthetized, and about 1 cm of adjacent portion from the cut portion was peeled from a periphery tissue. Further, a catheter was preliminarily inserted in the vein of a right neck for administration of a compound. The peeled nerve was mounted on a platinum hook electrode, and liquid paraffin was put on it so that the nerve was not dried. The electrode was connected with a fine electrode amplifier, and the value was recorded on a computer through an AD/converter from an oscilloscope. The nerve discharge recorded was assessed by the number of ignition per 10 seconds using an analysis soft (AcqKnowledge).

[3] = read-out: SBFI (IC50 μM); Test Example 3; Veratridine 20 μM; 2 μM TTX as 100%
[4] = Test Example 3; Veratridine 20 μM; 2 μM TTX as 100%; read-out: SBFI (IC50 μM)

Molecule `Cc1ccccc1CCC1CCN(Cc2ccc[nH]c2=O)CC1` [Example 285, 1-[(2-Oxo-1,2-dihydro-3-pyridinyl)methyl]-4-[2-(2-methylphenyl)ethyl]piperidine] has an IC50 [1, 3] of 7.7 µM, an IC50 (rabbit atrial muscle; Oryctolagus cuniculus, 0.25 h) of 2.9 µM and an ED50 [2] of 0.13 mg/kg.

For `O=c1[nH]cc(Br)cc1CN1CCC(CCc2cccc3c2OCO3)CC1` [Example 291, 1-[(5-Bromo-2-oxo-1,2-dihydro-3-pyridinyl)methyl]-4-[2-[2,3-(methylenedioxy)phenyl]ethyl]piperidine], the IC50 [1, 4] was 14.5 µM, the IC50 (rabbit atrial muscle) was 6 µM and the “Ectopic Firing (ID50 mg/kg)” value [2] was 0.1 mg/kg.

Molecule `O=c1[nH]cc(Cl)cc1CN1CCC(CCc2ccccc2OCc2ccccc2)CC1` [Example 299] has an IC50 [1, 3] of 5.3 µM, an IC50 (rabbit atrial muscle; Oryctolagus cuniculus, 0.25 h) of 50 µM and an ED50 [2] of 0.1 mg/kg.

`O=c1[nH]cc(Cl)cc1CN1CCC(CCc2ccccc2OCC2CCCCC2)CC1` [Example 301, 1-[(5-Chloro-2-oxo-1,2-dihydro-3-pyridinyl)methyl]-4-[2-[2-(cyclohexylmethyloxy)phenyl]ethyl]piperidine] was tested, and the IC50 [1, 3] was 6.5 µM, the IC50 (rabbit atrial muscle; Oryctolagus cuniculus, 0.25 h) was 100 µM and the ED50 [2] was 0.18 mg/kg.

`O=C(O)C(=O)O.O=c1[nH]cccc1CN1CCC(CCc2ccccc2OCC2CCCCC2)CC1` [Example 302, 1-[(2-Oxo-1,2-dihydro-3-pyridinyl)methyl]-4-[2-[2-(cyclohexylmethyloxy)phenyl]ethyl]piperidine oxalate] gave an IC50 [1, 3] of 1.2 µM, an IC50 (rabbit atrial muscle; Oryctolagus cuniculus, 0.25 h) of 22.5 µM and an ED50 [2] of 0.14 mg/kg.

Molecule `O=C(O)C(=O)O.O=c1[nH]cccc1CN1CCC(CCc2ccccc2CCc2ccccc2)CC1` [Example 306, 1-[(2-Oxo-1,2-dihydro-3-pyridinyl)methyl]-4-[[2-(2-phenylethyl)phenyl]ethyl]piperidine oxalate] has an IC50 [1, 3] of 1.3 µM, an IC50 (rabbit atrial muscle; Oryctolagus cuniculus, 0.25 h) of 1.9 µM and an ED50 [2] of 0.17 mg/kg.

Molecule `CC(C)COc1ccccc1CCC1CCN(Cc2ccc[nH]c2=O)CC1.O=C(O)C(=O)O` [Example 308, 1-[(2-Oxo-1,2-dihydro-3-pyridinyl)methyl]-4-[2-[2-(isobutyloxy)phenyl]ethyl]piperidine oxalate] has an IC50 [1, 3] of 0.5 µM, an IC50 (rabbit atrial muscle; Oryctolagus cuniculus, 0.25 h) of 3.1 µM and an ED50 [2] of 0.22 mg/kg.

`O=C(O)C(=O)O.O=c1[nH]cccc1CN1CCC(CCc2ccccc2OCCc2ccccc2)CC1` [Example 309, 1-[(2-Oxo-1,2-dihydro-3-pyridinyl)methyl]-4-[2-[2-(2-phenylethoxy)phenyl]ethyl]piperidine oxalate] was tested, and the IC50 [1, 3] was 1 µM, the IC50 (rabbit atrial muscle; Oryctolagus cuniculus, 0.25 h) was 6.3 µM and the ED50 [2] was 0.19 mg/kg.

`O=C(O)C(=O)O.O=c1[nH]cccc1CN1CCC(CCc2ccccc2OCC2CCCC2)CC1` [Example 311, 1-[(2-Oxo-1,2-dihydro-3-pyridinyl)methyl]-4-[2-[2-(cyclopentylmethyloxy)phenyl]ethyl]piperidine oxalate] showed an IC50 [1, 3] of 0.7 µM, an IC50 (rabbit atrial muscle; Oryctolagus cuniculus, 0.25 h) of 2 µM and an ED50 [2] of 0.13 mg/kg.

In the case of `Cl.Cl.O=c1[nH]cccc1CN1CCC(CCc2ccccc2NCc2ccccc2)CC1` [Example 313, 1-[(2-Oxo-1,2-dihydro-3-pyridinyl)methyl]-4-[2-[2-(benzylamino)phenyl]ethyl]piperidine dihydrochloride], the IC50 [1, 3] is reported as 1.5 µM, the IC50 (rabbit atrial muscle; Oryctolagus cuniculus, 0.25 h) is reported as 8.6 µM and the ED50 [2] is reported as 0.16 mg/kg.

With `O=c1[nH]cc(Cl)cc1CN1CCC(CCc2cccc3c2OCO3)CC1` [Example 319] the IC50 [1, 3] was 10.2 µM, the IC50 (rabbit atrial muscle; Oryctolagus cuniculus, 0.25 h) was 10 µM and the ED50 [2] was 0.082 mg/kg.

With `O=c1[nH]cc(Cl)cc1CN1CCC(CCc2ccccc2F)CC1` [Example 320] the IC50 [1, 3] was 17 µM, the IC50 (rabbit atrial muscle; Oryctolagus cuniculus, 0.25 h) was 14.8 µM and the ED50 [2] was 0.041 mg/kg.

`CC(C)COc1ccccc1CCC1CCN(Cc2cc(Cl)c[nH]c2=O)CC1.O=C(O)C(=O)O` [Example 323, 1-[(5-Chloro-2-oxo-1,2-dihydro-3-pyridinyl)methyl]-4-[2-[2-(isobutyloxy)phenyl]ethyl]piperidine oxalate] was tested, and the IC50 [1, 3] was 4.8 µM, the IC50 (rabbit atrial muscle; Oryctolagus cuniculus, 0.25 h) was 3.9 µM and the ED50 [2] was 0.083 mg/kg.

Work on `O=C(O)C(=O)O.O=c1[nH]cccc1CN1CCC(CCc2ccccc2OC(F)(F)F)CC1` [Example 326, 1-[(2-Oxo-1,2-dihydro-3-pyridinyl)methyl]-4-[2-[2-(trifluoromethoxy)phenyl]ethyl]piperidine oxalate] yielded an IC50 [1, 3] of 1.9 µM, an IC50 (rabbit atrial muscle; Oryctolagus cuniculus, 0.25 h) of 3.98 µM and an ED50 [2] of 0.18 mg/kg.

For `O=c1[nH]cccc1CN1CCC(C=C(c2ccccc2)c2ccccc2)CC1` [Example 333, 1-[(2-Oxo-1,2-dihydro-3-pyridinyl)methyl]-4-(2,2-diphenyl-1-ethenyl)piperidine], the IC50 [1, 3] was 5.4 µM, the IC50 (rabbit atrial muscle; Oryctolagus cuniculus, 0.25 h) was 4.9 µM and the ED50 [2] was 0.15 mg/kg.

`O=C(O)C(=O)O.O=c1[nH]cccc1CN1CCC(/C=C/c2ccccc2OCc2ccccc2)CC1` [Example 338, 1-[(2-Oxo-1,2-dihydro-3-pyridinyl)methyl]-4-[(E)-2-[2-(benzyloxy)phenyl]-1-ethenyl]piperidine oxalate] was tested, and the IC50 [1, 3] was 1.2 µM, the IC50 (rabbit atrial muscle; Oryctolagus cuniculus, 0.25 h) was 11.4 µM and the ED50 [2] was 0.19 mg/kg.

Molecule `O=c1[nH]cc(Cl)cc1CN1CCC(COc2ccc(F)cc2F)CC1` [Example 370, 1-[(5-Chloro-2-oxo-1,2-dihydro-3-pyridinyl)methyl]-4-[(2,4-difluorophenoxy)methyl]piperidine] has an IC50 [1, 3] of 33.6 µM, an IC50 (rabbit atrial muscle; Oryctolagus cuniculus, 0.25 h) of 45 µM and an ED50 [2] of 0.081 mg/kg.

With `O=c1[nH]cc(Cl)cc1CN1CCC(COc2cc(F)ccc2F)CC1` [Example 372, 1-[(5-Chloro-2-oxo-1,2-dihydro-3-pyridinyl)methyl]-4-[(2,5-difluorophenoxy)methyl]piperidine] the IC50 [1, 3] was 21.8 µM, the IC50 (rabbit atrial muscle; Oryctolagus cuniculus, 0.25 h) was 9.3 µM and the ED50 [2] was 0.11 mg/kg.

`O=c1[nH]cccc1CN1CCC(COc2ccccc2Cl)CC1` [Example 376, 1-[(2-Oxo-1,2-dihydro-3-pyridinyl)methyl]-4-[(2-chlorophenoxy)methyl]piperidine] showed an IC50 [1, 3] of 20.3 µM and an ED50 [2] of 0.07 mg/kg.

With `O=c1[nH]c2ccccc2cc1CN1CCC(CCc2cccc3c2OCO3)CC1` [Example 380, 1-[(2-Oxo-1,2-dihydro-3-quinolinyl)methyl]-4-[2-[2,3-(methylenedioxy)phenyl]ethyl]piperidine] the IC50 [1, 4] was 3.9 µM, the IC50 (rabbit atrial muscle) was 8.6 µM and the “Ectopic Firing (ID50 mg/kg)” value [2] was 0.1 mg/kg.

Work on `O=c1[nH]c2ccccc2cc1CN1CCC(CCc2cccc(-c3ccccc3)c2)CC1` [Example 381, 1-[(2-Oxo-1,2-dihydro-3-quinolinyl)methyl]-4-[2-(3-(phenylphenyl)ethyl]piperidine oxalate] yielded an IC50 [1, 3] of 3 µM, an IC50 (rabbit atrial muscle; Oryctolagus cuniculus, 0.25 h) of 100 µM and an ED50 [2] of 0.56 mg/kg.
